# Entries after “also recorded” stand apart in the source; their conditions may differ.
# Key:
# HLA-DR4 [1] = target: T1, HLA-DR4 (Homo sapiens, UniProt P01903+P01911, A100K/A169T/F76Y/I96L/K127E/L162R/M171V/N62H/P40V/Q125Y/R42H/S133A/S149N/S66Y/V115G/V209L/W38E); experiment: Binding of biotinylated polypeptides to purified HLA-DR4
# mouse spleen macrophages = experiment: Binding of biotinylated polypeptides to living antigen presenting cells (FACS), mouse; details: 50 μg biotinylated polypeptide, 37° C. for 20 hr
# [2] = system: Rat Basophilic Leukemia cells (RBL-2Ho); experiment: In vitro Rat Basophilic Leukemia cell degranulation test ([3H]-serotonin release); assay type: cell-based; details: 100 μg
# Excerpt: Histamine (or serotonin) release from basophile is an in vitro model for immediate hypersensitivity. The Rat Basophilic Leukemia cell line, RBL-2Ho, is uniform and easy to maintain in culture but is a highly sensitive and reproducible system for testing for degranulation. E. L. Basumian, et al., 11 EUR. J. IMMUNOL. 317 (1981). The physiological stimulus for histamine release involves binding of the antigen to membrane-bound IgE molecules, which triggers an intricate biochemical cascade. Degranulation is induced by non-IgE-mediated stimuli, including various peptides and synthetic polymers, e.g. polylysine. R. P. Siraganian, TRENDS IN PHARM[…] 432 (October 1983). The RBL degranulation test is, therefore, used to screen out those batches of COP-1 which evoke substantial degranulation and thus might elicit undesirable local and/or systemic side effects.
# Rat Basophilic Leukemia cells (RBL-2Ho), are loaded with [H^3]-serotonin, followed by incubation with 100 μg of the COP-1 to be tested. Batches of COP-1 which induce non-specific degranulation, release [H^3]-serotonin into the medium. The radioactivity in the medium is counted by a scintillation counter and the total radiolabeled serotonin incorporated into the cells is determined in the pelleted cells. Percent degranulation is calculated as the percentage of serotonin released out of the total incorporated.
# [3] = system: human EBV transformed B-cell line; experiment: Binding of biotinylated polypeptides to living antigen presenting cells (FACS), human; details: 50 μg biotinylated polypeptide, 37° C. for 20 hr; DR7,w11 haplotype
# [4] = system: T cells specific for the MBP 84-102 antigen; experiment: Inhibition of MBP-induced T cell proliferation; assay type: cell-based, mouse, human
# [5] = system: experimental allergic encephalomyelitis (EAE); experiment: EAE suppression by oral administration; details: Lewis rats fed 5 mg/kg; mean maximal score for the entire group, 0-5 scale
# [6] = system: experimental allergic encephalomyelitis (EAE); experiment: EAE suppression by injection with incomplete adjuvant; assay type: in vivo, (SJL/J×BALB/c)FI mice
# WCB AB line = experiment: IL-2 secretion from WCB AB line; details: for % Inhibition of IL-2 secretion: 2μM p259
# HLA-DR4 [7] = target: T1, HLA-DR4; experiment: Competitive inhibition of biotinylated Copolymer 1 binding to HLA-DR4
# HLA-DR2 [8] = target: T2, HLA-DR2 (Homo sapiens, UniProt P01903+P01911); experiment: Binding of biotinylated polypeptides to purified HLA-DR2
# HLA-DR2 [9] = target: T2, HLA-DR2; experiment: Competitive inhibition of biotinylated Copolymer 1 binding to HLA-DR2; details: vs 1.5 μM biotinylated Copolymer 1, pH 5.0, 40 hr 37° C.
# mice = experiment: Toxicity test in mice (i.v. injection, 48 hour observation); assay type: in vivo
# Procedure: Three batches of copolymer-1 having an average molecular weight of 7.3 and 8.4 KDa (less than 2.5% copolymer-1 species over 40KDa) and 22KDa (more than 5% copolymer-1 species over 40KDa) were subjected to the toxicity test described below. Five mice were used in each experimental group.
# Copolymer-1 is dissolved in distilled water to yield a solution of 2 mg/ml of the active ingredient. Each mouse is injected with 0.5 ml of the test solution into the lateral tail vein. […] Observations were recorded 10 minutes, 24 hours and 48 hours post-injection. If, at the end of 48 hours, all the animals were alive and no adverse signs had been observed, then the batch is designated “non-toxic”. If, however, one or more of the mice had died or had shown adverse signs, then the batch is designated “toxic”.
# HLA-DR1 [10] = target: T3, HLA-DR1 (Homo sapiens, UniProt P01903+P01911, A100R/D57E/F55L/F60I/F76Y/I96L/L162R/M171V/P40L/Q125E/R42F/V115G/Y59C); experiment: Binding of biotinylated polypeptides to purified HLA-DR1
# HLA-DR1 [11] = target: T3, HLA-DR1; experiment: Competitive inhibition of biotinylated Copolymer 1 binding to HLA-DR1
# [12] = mice, 10 mg/mouse subcutaneously in ICFA, EAE induced 3 weeks later
# [13] = vs 1.5 μM biotinylated Copolymer 1, pH 5.0, 40 hr 37° C.
substance,measurement,setting,value
Copolymer 1 [reference compound],"binding to HLA-DR4, comparison / order of binding capacity (in words)",HLA-DR4 [1]; detergent-soluble HLA-DR4,"better than that of GAL, TGA or GTL; also recorded: TAL>Copolymer 1>>TGA>GTL>GAL"
same,Kd,"HLA-DR4 [1]; read-out: Kd DR4, detergent-soluble HLA-DR4, pH 5.0, 40 hr 37° C., from slope of double reciprocal plot",15 nM
same,% Binding,mouse spleen macrophages,85%
same,MFI (Mean Fluorescence Intensity),mouse spleen macrophages,493
same,% Serotonin Release,"[2]; Copolymer 1 batch Average M.W. 6,250, <2.5% species over 40 KDa",12.4%
same,% Serotonin Release,"[2]; Copolymer 1 batch Average M.W. 7,300, <2.5% species over 40 KDa",21.0%
same,% Serotonin Release,"[2]; Copolymer 1 batch Average M.W. 13,000, >5% species over 40 KDa",66.9%
same,% Serotonin Release,"[2]; Copolymer 1 batch Average M.W. 14,500, >5% species over 40 KDa",67.8%
same,% Binding,[3],96%
same,MFI (Mean Fluorescence Intensity),[3],727
same,inhibition of proliferation of T cells exposed to MBP 84-102 antigen (in words),[4]; polypeptide added with stimulating MBP antigen,significantly inhibited the proliferation
same,stimulation of proliferation of T cells specific for the 84-102 peptide of MBP (in words),[4]; polypeptide as antigen,did not stimulate proliferation
same,MMS ± SD,[5],0.78 ± 0.45
same,EAE suppression (in words),[6]; injection in ICFA prior to induction of EAE,greatest EAE suppression
same,Incidence,[6]; [12],2/11
same,Suppression % Incidence,[6]; [12],82.0%
same,Suppression % MMS,[6]; [12],89.0%
same,MMS (Mean Maximal Score),"[6]; mice, 10 mg/mouse subcutaneously in ICFA, EAE induced 3 weeks later, 0-5 scale",0.45
same,% Inhibition of IL-2 secretion,WCB AB line; Cop1 20 μM,73%
same,% Inhibition of IL-2 secretion,WCB AB line; Cop1 60 μM,88%
same,% Inhibition of IL-2 secretion,WCB AB line; Cop1 100 μM,about 91%
same,% Inhibition of IL-2 secretion,"WCB AB line; Cop1 100 μM, listed as Cop1",91%
same,inhibition of p259-induced T cell secretion of IL-2 (in words),WCB AB line; Copolymer 1 incubated with the p259 peptide,inhibited in a dose-related fashion
same,inhibition of binding of biotinylated Copolymer 1 to HLA-DR4 (in words),HLA-DR4 [7]; unlabeled inhibitor,efficiently inhibited
same,IC50,HLA-DR4 [7]; [13],10.8 µM
same,"binding to HLA-DR2, comparison / order of binding capacity (in words)",HLA-DR2 [8]; detergent-soluble HLA-DR2,bound better than the other polypeptides; also recorded: Copolymer 1>GTL>TAL>GAL>TGA
same,Kd,"HLA-DR2 [8]; read-out: Kd DR2, detergent-soluble HLA-DR2, pH 5.0, 40 hr 37° C., from slope of double reciprocal plot",82 nM
same,IC50,HLA-DR2 [9],10.1 µM
same,batch designation toxic / non-toxic,mice; Copolymer 1 batch of 7.3 KDa average molecular weight,non-toxic
same,batch designation toxic / non-toxic,mice; Copolymer 1 batch of 8.4 KDa average molecular weight,non-toxic
same,batch designation toxic / non-toxic,mice; Copolymer 1 batch of 22 kDa average molecular weight,toxic
same,mice died after 48 hours,"mice; Copolymer 1 batch of 22 kDa average molecular weight, 0.5 ml of 2 mg/ml into lateral tail vein, five mice",Three of five
same,"binding to HLA-DR1, comparison / order of binding capacity (in words)",HLA-DR1 [10]; detergent-soluble HLA-DR1,"better than that of GAL, TGA or GTL; also recorded: Copolymer 1>TAL>GTL>TGA>>GAL"
same,Kd,"HLA-DR1 [10]; read-out: Kd DR1, detergent-soluble HLA-DR1, pH 5.0, 40 hr 37° C., from slope of double reciprocal plot",74 nM
same,inhibition of binding of biotinylated Copolymer 1 to HLA-DR1 (in words),HLA-DR1 [11]; unlabeled inhibitor,efficiently inhibited
same,IC50,HLA-DR1 [11]; [13],8.8 µM

# Source: patent US7279172B2, “Treatment of autoimmune conditions with copolymer 1 and related copolymers” (priority 1998, dated 2007)
